According to patent publication US20100173832A1, “ANTICANCEROUS POLYMERIC AGENTS” (TECHNION RESEARCH & DEVELOPMENT FOUNDATION LTD., priority 2007, published 2010):
Non-standard residues stand in square brackets, D forms with d. Residues, ends and D or L forms follow the SMILES beside them. *: point of attachment. Lauroyl = CCCCCCCCCCCC(=O)*; Aoc = NCCCCCCCC(=O)O

System: TRAMP-C2 cell line
Assay: not given
Assay type: cell-based
Settings: 24 hours incubation, XTT; read-out: Cancer LC50 Mouse prostate cancer TRAMP-C2
Description: Transgenic adenocarcinoma mouse prostate cells (TRAMP-C2);
(§1) As a routine cancer cell killing assay for assessment of antitumor activity, 2,3-bis(2-methoxy-4-nitro-5-sulfophenyl)-2H-tetrazolium-5-carboxanilide inner salt (XTT) reduction assay was used, utilizing a commercial kit such as, for example, Cell Proliferation XTT Kit, Cat. No. 20-300-1000, Biological Industries Ltd., Kibbutz Beit Haemek, Israel. XTT is a tetrazolium salt which is cleaved to formazan colored compounds by the mitochondrial dehydrogenase enzymes indicating proper mitochondrial activity in intact cells.
(§2) Thereafter, a series of increasing concentrations of the polymers were added. After another 24 hours of incubation, XTT reaction solution was added (50 μl of XTT per 100 μl of cell culture medium). The optical density of the cells was measured at 450 nm by ELISA plate reader after 2-4 hours XTT incubation. Cell viability was determined relative to a control having no polymer added thereto.
“Mouse prostate cancer TRAMP-C2” represents the lethal concentration in μM as measured against TRAMP-C2 cell line, measured as described hereinabove in the cell proliferation XTT assay (column 5 in Table 3);

SMILES | CC50 [µM]
NCCCC[C@H](NC(=O)CCCCCCCCCCCNC(=O)[C@H](CCCCN)NC(=O)[C@H](CCCCN)NC(=O)CCCCCCCCCCCNC(=O)[C@H](CCCCN)NC(=O)[C@@H](N)CCCCN)C(N)=O [K(KNC12K)2NH2] (HELM PEPTIDE1{K.K.[O=C(CCCCCCCCCCCN[*:1])[*:2]].K.K.[O=C(CCCCCCCCCCCN[*:1])[*:2]].K.[am]}$$$$V2.0) | > 16

System: N-417 cell line
Assay: XTT cell viability assay, N-417 cells
Assay type: cell-based
Settings: 24 hours incubation, XTT; read-out: Cancer LC50 Human small-cell lung carcinoma N-417
Description: Variant small cell lung cancer cells (N-417, SCLC);
as §1, §2
“Human breast cancer MCF-7” represents the lethal concentration in μM as measured against MCF-7 cell line, measured as described hereinabove in the cell proliferation XTT assay (column 6 in Table 3); “Human small-cell lung carcinoma N-417” represents the lethal concentration in μM as measured against N-417 cell line, measured as described hereinabove in the cell proliferation XTT assay (column 7 in Table 3);

SMILES | CC50 [µM]
NCCCC[C@H](NC(=O)CCCCCCCCCCCNC(=O)[C@H](CCCCN)NC(=O)[C@H](CCCCN)NC(=O)CCCCCCCCCCCNC(=O)[C@H](CCCCN)NC(=O)[C@@H](N)CCCCN)C(N)=O [K(KNC12K)2NH2] (HELM PEPTIDE1{K.K.[O=C(CCCCCCCCCCCN[*:1])[*:2]].K.K.[O=C(CCCCCCCCCCCN[*:1])[*:2]].K.[am]}$$$$V2.0) | > 16

System: MCF-7 cell line
Assay: not given
Assay type: cell-based
Settings: 24 hours incubation, XTT; read-out: Cancer LC50 Human breast cancer MCF-7

SMILES | CC50 [µM]
NCCCC[C@H](NC(=O)CCCCCCCCCCCNC(=O)[C@H](CCCCN)NC(=O)[C@H](CCCCN)NC(=O)CCCCCCCCCCCNC(=O)[C@H](CCCCN)NC(=O)[C@@H](N)CCCCN)C(N)=O [K(KNC12K)2NH2] (HELM PEPTIDE1{K.K.[O=C(CCCCCCCCCCCN[*:1])[*:2]].K.K.[O=C(CCCCCCCCCCCN[*:1])[*:2]].K.[am]}$$$$V2.0) | > 16

System: not listed separately
Assay: XTT cell viability assay, non-cancerous cardiac fibroblasts (CF)
Assay type: cell-based, rat
Settings: primary cardiac fibroblasts (CF); primary non-cancerous rat cardiac fibroblasts, XTT assay; read-out: CF lethal concentration
Description: Primary non-cancerous rat cardiac fibroblasts (CF);
as §1, §2
“Rat primary cardiac fibroblast CF” represents the lethal concentration in μM as measured against CF cell line, measured as described hereinabove in the cell proliferation XTT assay (column 8 in Table 3);

SMILES | CC50 at 24 h [µM]
NCCCCCCCCCCCC(=O)N[C@@H](CCCCN)C(=O)NCCCCCCCCCCCC(=O)N[C@@H](CCCCN)C(=O)NCCCCCCCCCCCC(=O)N[C@@H](CCCCN)C(=O)NCCCCCCCCCCCC(=O)N[C@@H](CCCCN)C(=O)NCCCCCCCCCCCC(=O)N[C@@H](CCCCN)C(=O)NCCCCCCCCCCCC(=O)N[C@@H](CCCCN)C(N)=O [(NC12K)6NH2] | > 16
CCCCCCCCCCCC(=O)N[C@@H](CCCCN)C(=O)NCCCCCCCCCCCC(=O)N[C@@H](CCCCN)C(=O)NCCCCCCCCCCCC(=O)N[C@@H](CCCCN)C(=O)NCCCCCCCCCCCC(=O)N[C@@H](CCCCN)C(=O)NCCCCCCCCCCCC(=O)N[C@@H](CCCCN)C(N)=O [C12K(NC12K)4NH2] | 37 ± 2.12
NCCCCCCCCCCCC(=O)N[C@@H](CCCCN)C(=O)NCCCCCCCCCCCC(=O)N[C@@H](CCCCN)C(=O)NCCCCCCCCCCCC(=O)N[C@@H](CCCCN)C(=O)NCCCCCCCCCCCC(=O)N[C@@H](CCCCN)C(=O)NCCCCCCCCCCCC(=O)N[C@@H](CCCCN)C(=O)NCCCCCCCCCCCC(=O)N[C@@H](CCCCN)C(=O)NCCCCCCCCCCCC(=O)N[C@@H](CCCCN)C(=O)NCCCCCCCCCCCC(=O)N[C@@H](CCCCN)C(N)=O [(NC12K)8NH2] | > 16
NCCCCCCCCCCCC(=O)N[C@@H](CCCCN)C(=O)NCCCCCCCCCCCC(=O)N[C@@H](CCCCN)C(=O)NCCCCCCCCCCCC(=O)N[C@@H](CCCCN)C(=O)NCCCCCCCCCCCC(=O)N[C@@H](CCCCN)C(=O)NCCCCCCCCCCCC(=O)N[C@@H](CCCCN)C(N)=O [(NC12K)5NH2] | > 16
NCCCC[C@H](NC(=O)CCCCCCCCCCCNC(=O)[C@H](CCCCN)NC(=O)CCCCCCCCCCCNC(=O)[C@@H](N)CCCCN)C(=O)O [K(NC12K)2] | > 16
CCCCCCCCCCCC(=O)N[C@@H](CCCCN)C(=O)NCCCCCCCC(=O)N[C@@H](CCCCN)C(=O)N[C@@H](CCCCN)C(=O)NCCCCCCCC(=O)N[C@@H](CCCCN)C(N)=O [C12(KNC8K)2NH2] (Lauroyl-K[Aoc]KK[Aoc]K-NH2) | < 16
NCCCC[C@H](NC(=O)CCCCCCCCCCCNC(=O)[C@H](CCCCN)NC(=O)CCCCCCCCCCCNC(=O)[C@H](CCCCN)NC(=O)CCCCCCCCCCCNC(=O)[C@H](CCCCN)NC(=O)CCCCCCCCCCCNC(=O)[C@H](CCCCN)NC(=O)CCCCCCCCCCCNC(=O)[C@H](CCCCN)NC(=O)CCCCCCCCCCCNC(=O)[C@@H](N)CCCCN)C(N)=O [K(NC12K)6NH2] | > 16
NCCCC[C@H](NC(=O)CCCCCCCCCCCNC(=O)[C@H](CCCCN)NC(=O)CCCCCCCCCCCNC(=O)[C@H](CCCCN)NC(=O)CCCCCCCCCCCNC(=O)[C@H](CCCCN)NC(=O)CCCCCCCCCCCNC(=O)[C@@H](N)CCCCN)C(N)=O [K(NC12K)4NH2] | 50
CCCCCCCCCCCC(=O)N[C@@H](CCCCN)C(=O)NCCCCCCCC(=O)N[C@@H](CCCCN)C(N)=O [C12(KNC8K)NH2] | < 16
CCCCCCCCCCCC(=O)N[C@@H](CCCCN)C(=O)NCCCCCCCCCCCC(=O)N[C@@H](CCCCN)C(=O)NCCCCCCCCCCCC(=O)N[C@@H](CCCCN)C(=O)NCCCCCCCCCCCC(=O)N[C@@H](CCCCN)C(=O)O [C12K(NC12K)3] | > 16
NCCCC[C@H](NC(=O)CCCCCCCCCCCNC(=O)[C@@H](N)CCCCN)C(=O)O [KNC12K] | > 16
NCCCC[C@H](NC(=O)CCCCCCCCCCCNC(=O)[C@H](CCCCN)NC(=O)CCCCCCCCCCCNC(=O)[C@@H](N)CCCCN)C(N)=O [K(NC12K)2NH2] | > 16
NCCCCCCCCCCCC(=O)N[C@@H](CCCCN)C(=O)NCCCCCCCCCCCC(=O)N[C@@H](CCCCN)C(=O)NCCCCCCCCCCCC(=O)N[C@@H](CCCCN)C(=O)NCCCCCCCCCCCC(=O)N[C@@H](CCCCN)C(=O)NCCCCCCCCCCCC(=O)N[C@@H](CCCCN)C(=O)NCCCCCCCCCCCC(=O)N[C@@H](CCCCN)C(=O)NCCCCCCCCCCCC(=O)N[C@@H](CCCCN)C(N)=O [(NC12K)7NH2] | > 16
CCCCCCCCCCCC(=O)N[C@@H](CCCCN)C(=O)NCCCCCCCCCCCC(=O)N[C@@H](CCCCN)C(=O)O [C12KNC12K] | > 16

Same assay, conditions: rat, primary non-cancerous cardiac fibroblasts (CF), 24 hours incubation, XTT, non-cancerous cells; read-out: Cancer LC50 Rat primary cardiac fibroblast CF

SMILES | CC50 at 24 h [µM]
NCCCC[C@H](NC(=O)CCCCCCCCCCCNC(=O)[C@H](CCCCN)NC(=O)[C@H](CCCCN)NC(=O)CCCCCCCCCCCNC(=O)[C@H](CCCCN)NC(=O)[C@@H](N)CCCCN)C(N)=O [K(KNC12K)2NH2] (HELM PEPTIDE1{K.K.[O=C(CCCCCCCCCCCN[*:1])[*:2]].K.K.[O=C(CCCCCCCCCCCN[*:1])[*:2]].K.[am]}$$$$V2.0) | > 16
